In patent publication US6812229B1, “Carbamate derivative and agricultural/horticultural fungicide” (Kumiai Chemical Industry Co., Ltd., priority 1999, dated 2004):

Tests used:
Erysiphe graminis = experiment: Test for preventive effect on wheat powdery mildew; format: in vivo; settings: wheat seedlings (Norin-61-go), two-leaf stage, 500 ppm active ingredient, wettable powder, total diseased area of first leaves 10 days after inoculation
Protocol: 10 Wheat seeds (variety: Norin-61-go) were sown in each plastic pot having a diameter of 6 cm, and grown in a greenhouse. Wheat seedlings which reached a two-leaf stage were treated with 10 ml per pot of aqueous solutions of wettable powders prepared in accordance with Formulation Example 2, at a concentration of 500 ppm in terms of the active ingredients, and dried in the air. Then, the seedlings were inoculated with Erysiphe graminis spore and controlled in a greenhouse. 10 Days after the inoculation, the total diseased area of the first leaves in each pot was observed and evaluated on the basis of the standards shown in Table 21.

Septoria nodorum = experiment: Test for preventive effect on Septoria leaf blotch of wheat; format: in vivo; settings: wheat seedlings (Norin-61-go), two-leaf stage, 50 ppm active ingredient, 10 ml per pot, evaluated 10 days after inoculation with Septoria nodorum
Excerpt: [table] 10 Wheat seeds (variety: Norin-61-go) were sown in each plastic pot having a diameter of 6 cm, and grown in a greenhouse. […] Then, the seedlings were inoculated with Septoria nodorum […] controlled in a greenhouse. 10 Days after the inoculation, the total diseased area of the first leaves in each pot was observed and evaluated on the basis of the standards shown in Table 21.

Structure (SMILES)	Evaluation (Erysiphe graminis)	Evaluation (total diseased area of the first leaves) (Septoria nodorum)
COC(=O)NCc1cc(C(C)=NOCc2ccc(C(F)(F)F)cc2)ccc1Cl [A-101]	A (No diseased area)	
CCON=C(C)c1ccc(Cl)c(CNC(=O)OC)c1 [A-49]	A (No diseased area)	
COC(=O)NCc1cc(C(C)=NOC(C)c2ccccc2Cl)ccc1F (stereo not drawn) [A-378]		A (No diseased area)
COC(=O)N(Cc1cc(C(C)=NOCc2ccccc2C#N)ccc1C)Cc1ccccc1C#N [A-361]		B (Diseased area of less than 5%)
COC(=O)NCc1cc(C(C)=NOCc2ccc(C(C)=O)o2)ccc1Cl [A-410]		A (No diseased area)
COC(=O)NCc1cc(C(C)=NOCc2cc(C)cc(C)c2)ccc1Cl [A-279]		B (Diseased area of less than 5%)
COC(=O)NCc1cc(C(C)=NOCC2CCCO2)ccc1Cl (stereo not drawn) [A-443]		B (Diseased area of less than 5%)
COC(=O)NCc1cc(C(C)=NOCc2ccccc2)ccc1F [A-323]		A (No diseased area)
COC(=O)NCc1cc(C(C)=NOC(C)c2cccc(OC)c2)ccc1Cl (stereo not drawn) [A-312]		A (No diseased area)
COC(=O)NCc1cccc(C(C)=NOc2cccc(Cl)c2C#N)c1 [A-385]		B (Diseased area of less than 5%)
COC(=O)N(Cc1cccc(OC)c1)Cc1cc(C(C)=NOCc2cccc(OC)c2)ccc1C [A-322]		A (No diseased area)
COC(=O)NCc1cc(C(C)=NOCc2ccccc2C#N)ccc1C [A-360]		A (No diseased area)
COC(=O)NCc1cc(C(C)=NOC(C)c2cccc(Cl)c2)ccc1F (stereo not drawn) [A-379]		A (No diseased area)
CCC(=NOCc1ccccc1Cl)c1ccc(Cl)c(CNC(=O)OC)c1 [A-296]		A (No diseased area)
COC(=O)NCc1cc(C(C)=NOC(C)c2cccc(C(F)(F)F)c2)ccc1Cl (stereo not drawn) [A-313]		A (No diseased area)
COC(=O)NCc1cc(C(C)=NOC(C)c2cccc(Cl)c2)ccc1Cl (stereo not drawn) [A-310]		A (No diseased area)
COC(=O)NCc1cc(C(C)=NOCc2ccccc2F)ccc1F [A-324]		A (No diseased area)
COC(=O)NCc1cc(C(C)=NOCc2ccccn2)cc(C)c1Cl [A-355]		B (Diseased area of less than 5%)
COC(=O)NCc1cccc(C(C)=NOCc2ccc(F)cc2)c1 [A-400]		B (Diseased area of less than 5%)
COC(=O)NCc1cc(C(C)=NOCc2cc(Cl)cc(Cl)c2)ccc1Cl [A-257]		A (No diseased area)
CCC(=NOCc1ccccc1)c1ccc(Cl)c(CNC(=O)OC)c1 [A-303]		A (No diseased area)
COC(=O)NCc1cc(C(C)=NOC2C=CCC2OC)ccc1Cl (stereo not drawn) [A-411]		A (No diseased area)
COC(=O)NCc1cccc(C(C)=NOCc2cccc(Cl)c2)c1 [A-339]		A (No diseased area)

Structure (SMILES)	Evaluation (Erysiphe graminis)	Evaluation (total diseased area of the first leaves) (Septoria nodorum)
COC(=O)NCc1cc(C(C#N)=NOCc2ccccc2Cl)ccc1Cl [A-8]		B (Diseased area of less than 5%)
COC(=O)NCc1cc(C(C)=NOCc2ccccc2[N+](=O)[O-])ccc1Cl [A-414]		A (No diseased area)
COC(=O)NCc1cc(C(C)=NOCc2ccc(Cl)cc2)ccc1C [A-365]		B (Diseased area of less than 5%)
COC(=O)NCc1cc(C(C)=NOCc2cccc(OC)n2)ccc1Cl [A-417]		A (No diseased area)
COC(=O)NCc1cc(C(C)=NOCC(=O)c2ccc(Cl)cc2)ccc1Cl [A-403]		A (No diseased area)
COC(=O)NCc1cc(C(C)=NOCc2cccc(C#N)c2)ccc1Cl [A-102]		A (No diseased area)
COC(=O)NCc1cc(C(C)=NOCc2ccccc2C(F)(F)F)ccc1F [A-328]		A (No diseased area)
CCOc1cccc(CON=C(C)c2ccc(Cl)c(CNC(=O)OC)c2)n1 [A-418]		A (No diseased area)
COC(=O)NCc1cc(C(C)=NOCc2ccc(Cl)cc2)ccc1F [A-372]		A (No diseased area)
COC(=O)NCc1cc(C(C)=NOCc2cccc(Cl)n2)ccc1Cl [A-285]		A (No diseased area)
COC(=O)NCc1cc(C(C)=NOCc2ccccc2)ccc1Cl [A-206]		B (Diseased area of less than 5%)
COC(=O)NCc1cc(C(C)=NOCc2ccccc2C#N)ccc1F [A-377]		A (No diseased area)
COC(=O)NCc1cc(C(C)=NOCc2ccc(C)cc2)ccc1C [A-363]		A (No diseased area)
COC(=O)NCc1cc(C(C)=NOCc2cccc(C)c2)ccc1C [A-362]		A (No diseased area)
COC(=O)NCc1c(Cl)c(Cl)c(Cl)c(C(C)=NOCc2ccccc2)c1Cl [A-382]		B (Diseased area of less than 5%)
CC=CCON=C(C)c1ccc(Cl)c(CNC(=O)OC)c1 [A-189]		A (No diseased area)
COC(=O)NCc1cc(C(C)=NOCc2ccc(C)cc2)ccc1F [A-374]		A (No diseased area)
COC(=O)NCc1cc(C(C)=NOCc2ccccn2)ccc1F [A-330]		B (Diseased area of less than 5%)
CCCCCCCON=C(C)c1ccc(Cl)c(CNC(=O)OC)c1 [A-251]		A (No diseased area)
CCON=C(CC)c1ccc(Cl)c(CNC(=O)OC)c1 [A-111]		A (No diseased area)
CCC(=NOCC(C)=NOC)c1ccc(Cl)c(CNC(=O)OC)c1 [A-293]		A (No diseased area)
COC(=O)NCc1cc(C(C)=NOC(C)c2ccccc2C)ccc1Cl (stereo not drawn) [A-406]		A (No diseased area)
COC(=O)NCc1cc(C(C#N)=NOCCc2ccccc2)ccc1Cl [A-277]		B (Diseased area of less than 5%)

Structure (SMILES)	Evaluation (Erysiphe graminis)	Evaluation (total diseased area of the first leaves) (Septoria nodorum)
COC(=O)NCc1cc(C(C)=NOCc2ccc(OC)cc2)ccc1Cl [A-95]		A (No diseased area)
COC(=O)NCc1cc(C(C)=NOCc2cccc([N+](=O)[O-])c2)ccc1Cl [A-266]		B (Diseased area of less than 5%)
COC(=O)NCc1cc(C(C)=NOCc2ccccc2OC(F)(F)F)ccc1Cl [A-217]		A (No diseased area)
COC(=O)NCc1cc(C(C)=NOCc2ccc(OC)cc2)cc(C)c1Cl [A-158]		A (No diseased area)
COC(=O)NCc1cc(C(C)=NOCc2cc(C)ccc2C)ccc1Cl [A-258]		B (Diseased area of less than 5%)
COC(=O)NCc1cc(C(C)=NOCc2cccc(OC)c2)ccc1C [A-315]		A (No diseased area)
COC(=O)NCc1cc(C(C)=NOCc2cccc(OC(F)(F)F)c2)ccc1Cl [A-218]		A (No diseased area)
COC(=O)NCc1cc(C(C)=NOCc2cccc(OC)c2)ccc1F [A-329]		A (No diseased area)
COC(=O)NCc1cc(C(C)=NOCc2ccc3ccccc3n2)ccc1Cl [A-431]		A (No diseased area)
COC(=O)NCc1cccc(C(C)=NOCc2cc(Cl)ccc2Cl)c1 [A-388]		A (No diseased area)
COC(=O)NCc1cc(C(C)=NOCc2ccc(C(F)(F)F)cc2)ccc1F [A-376]		B (Diseased area of less than 5%)
COC(=O)NCc1cccc(C(C)=NOCc2ccccc2C(F)(F)F)c1 [A-348]		B (Diseased area of less than 5%)
COC(=O)NCc1cc(C(C)=NOc2ccccc2)ccc1Cl [A-73]		A (No diseased area)
COC(=O)NCc1cc(C(C)=NOCc2ccccc2Br)ccc1F [A-326]		A (No diseased area)
COC(=O)NCc1cc(C(C)=NOCc2ncccc2C)ccc1Cl [A-306]		A (No diseased area)
COC(=O)NCc1cc(C(C)=NOCc2cccnc2C#N)ccc1Cl [A-397]		A (No diseased area)
COC(=O)NCc1cc(C(=NOCc2ccccc2C)C2CC2)ccc1Cl [A-359]		B (Diseased area of less than 5%)
COC(=O)NCc1cc(C(C)=NOCC=C(Cl)Cl)ccc1Cl [A-185]		A (No diseased area)
COC(=O)NCc1cc(C(C)=NOCc2cccc(OC)c2)ccc1Cl [A-94]		A (No diseased area)
COC(=O)NCc1cc(C(C)=NOCc2ccc(C#N)cc2)ccc1Cl [A-103]		B (Diseased area of less than 5%)
COC(=O)NCc1cc(C(C)=NOCc2ccccc2Cl)cc(C)c1C [A-358]		A (No diseased area)
COC(=O)NCc1cccc(C(C)=NOCc2c(Cl)cccc2Cl)c1 [A-389]		A (No diseased area)
CCC(C)ON=C(C)c1ccc(Cl)c(CNC(=O)OC)c1 (stereo not drawn) [A-53]		A (No diseased area)
